Assay results from patent US5776901A, “Polypeptide analogues having growth hormone releasing activity” (Administrators of the Tulane Educational Fund, priority 1992, dated 1998).
Values joined by “and” are separate entries in the source; they are usually repeats but may differ in a detail not shown here. Equal entries are not always repeated.

Legend:
[1] = tested on: serum growth hormone (GH); assay: In vivo GH release in pentobarbital anesthetized rats, i.v. injection; parameters: species or system rat; conditions: sacrificed 10 min after injection, N = 6
Experimental: (§1) Immature female Sprague-Dawley rats were obtained from the Charles River Laboratories (Wilmington, Mass.). After arrival they were housed at 25° C. with a 14:10 hour light:dark cycle. Water and Purina rat chow were available ad libitum. Pups were kept with their mothers until 21 days of age.
(§2) Twenty-six day old rats, six rats per treatment group, were anesthetized interperitoneally with 50 mg/kg of pentobarbital 20 minutes prior to i.v. treatment with peptide. Normal saline with 0.1% gelatin was the vehicle for intravenous (i.v.) injections of the peptides. The anesthetized rats, weighing 55-65 grams, were injected i.v. with the quantity of growth hormone releasing compounds indicated in Table 3. Injection was made as a 0.1 mL solution into the jugular vein.
(§3) All animals were sacrificed by guillotine 10 minutes after the final test injection (see Table 3). Trunk blood for the determination of blood GH levels was collected following decapitation. After allowing the blood to clot, it was centrifuged and the serum was separated from the clot. Serum was kept frozen until the day of sampling for radioimmunoassay (RIA) determination of growth hormone levels according to the following procedure, as developed by the National Institute of Arthritis, Diabetes and Digestive and Kidney Diseases (NIADDK).
Reagents are generally added to the RIA analysis tubes at a single sitting, at refrigerator temperature (about 4° C.) in the following sequence:
(b) "cold" (i.e., non-radioactive) standard or unknown serum sample to be analyzed,
(c) radio-iodinated growth hormone antigen, and
(d) growth hormone antiserum.
Reagent addition is generally carried out so that there is achieved a final RIA tube dilution of about 1:30,000 (antiserum to total liquid volume; vol:vol).
(§4) The mixed reagents are then typically incubated at room temperature (about 25° C.) for about 24 hours prior to addition of a second antibody (e.g., goat or rabbit anti-monkey gamma globulin serum) which binds to and causes precipitation of the complexed growth hormone antiserum. Precipitated contents of the RIA tubes are then analyzed for the number of counts in a specified period of time in a gamma scintillation counter. A standard curve is prepared by plotting number of radioactive counts versus growth hormone (GH) level. GH levels of unknowns are then determined by reference to the standard curve.
(§5) Serum GH was measured by RIA with reagents provided by the National Hormone and Pituitary Program.
Serum levels in Table 3 are recorded in ng/mL in terms of the rat GH standard of 0.61 International Units/mg (IU/mg). Data is recorded as the mean +/- standard error of the mean (SEM). Statistical analysis was performed with Student's t-test. In Table 3 the results shown are the average of studies with six rats.
The procedure of Example 2 was repeated.

[2] = tested on: serum growth hormone (GH); assay: In vivo GH release in rats, subcutaneous injection, sacrifice at +15 minutes; parameters: species or system rat; conditions: Table 7, sacrifice +15 minutes, N = 6
Experimental: as §1, §2, §3, §4, §5
The general procedure of Example 2 was followed except the peptides were injected subcutaneously rather than intravenously and the sacrifice time was +15 minutes rather than +10 minutes.

[3] = Table 5, total dose 0.30 μg i.v.
[4] = Table 5, total dose 3.00 μg i.v.
[5] = Table 6, total dose 0.30 μg i.v.
[6] = Table 6, total dose 1.00 μg i.v.
[7] = Table 5, total dose 0.10 μg i.v.
[8] = Table 5, total dose 1.00 μg i.v.

DAla-Tcc-Ala-Trp-DPhe-Lys-NH2
GH Released Serum GH [1, 3]: 149 ng/mL
GH Released Serum GH [1, 4]: 142 ng/mL

DAla-DμNal-Ala-Trp-LysNH2
GH Released Serum GH [1, 5]: 187 ng/mL
GH Released Serum GH [1, 6]: 257 ng/mL
GH Released Serum GH ([1]; Table 6, total dose 3.00 μg i.v.): 198 ng/mL
GH Released Serum GH ([1]; Table 6, total dose 10.00 μg i.v.): 193 ng/mL
GH Released Serum GH ([1]; Table 6, total dose 30.00 μg i.v.): 236 ng/mL

3Me-His-DβNal-Ala-Trp-DPhe-Lys-NH2
GH Released Serum GH ([1]; Table 5, total dose 0.03 μg i.v.): 122 ng/mL and 134 ng/mL
GH Released Serum GH [1, 7]: 185 ng/mL and 112 ng/mL and 159 ng/mL
GH Released Serum GH [1, 3]: 101 ng/mL and 78 ng/mL
GH Released Serum GH [1, 8]: 134 ng/mL

α,γABU-DβNal-Ala-Trp-DPhe-LysNH2
GH Released Serum GH ([1]; Table 6, total dose 0.03 μg i.v.): 621 ng/mL
GH Released Serum GH ([1]; Table 6, total dose 0.10 μg i.v.): 1230 ng/mL
GH Released Serum GH [1, 5]: 2385 ng/mL
GH Released Serum GH [1, 6]: 3011 ng/mL

γABU-DβNal-Ala-Phe-DPhe-Lys-NH2
GH Released Serum GH + SEM ([2]; total dose 1.00 μg s.c.): 1127 ± 110 ng/mL
GH Released Serum GH + SEM ([2]; total dose .03 μg s.c.): 197 ± 31 ng/mL
GH Released Serum GH + SEM ([2]; total dose .10 μg s.c.): 182 ± 20 ng/mL
GH Released Serum GH + SEM ([2]; total dose .30 μg s.c.): 524 ± 116 ng/mL

αγABU-DβNal-Ala-Phe-DPhe-Lys-NH2
GH Released Serum GH + SEM ([2]; total dose 1.00 μg s.c.): 1441 ± 203 ng/mL
GH Released Serum GH + SEM ([2]; total dose .03 μg s.c.): 192 ± 29 ng/mL
GH Released Serum GH + SEM ([2]; total dose .10 μg s.c.): 288 ± 62 ng/mL
GH Released Serum GH + SEM ([2]; total dose .30 μg s.c.): 461 ± 90 ng/mL

Tip-Ala-DβNal-Ala-Trp-DPhe-Lys-NH2
GH Released Serum GH [1, 7]: 168 ng/mL
GH Released Serum GH [1, 3]: 167 ng/mL
GH Released Serum GH [1, 8]: 152 ng/mL
GH Released Serum GH [1, 4]: 272 ng/mL
